Measured values: patent US20240228458A1, “PYRIMIDINE DERIVATIVE HAVING PROTEIN KINASE INHIBITORY ACTIVITY, AND THERAPEUTIC PHARMACEUTICAL COMPOSITION COMPRISING SAME” (THERAPEX CO., LTD., priority 2021, published 2024)

Assays:
Format in all cases: cell-based
[1] = test system: Ba/F3 cells expressing del19/T790M/C797S (EGFR-DTC); experiment: Growth inhibition (GI50) of Ba/F3 cells expressing del19/T790M/C797S (EGFR-DTC), Celltiter glo; details: Mus musculus, BaF3, 72 h
Method: (§1) In this experimental example, a determination was made as to whether the compounds prepared in Examples 1-283 have the ability to inhibit the growth of Ba/F3 cells expressing EGFR-wt, del19/T790M/C797S (EGFR-DTC), L858R/T790M/C797S (EGFR-LTC), del19/T790M (EGFR-DT), and L858R/T790M (EGFR-LT) variants.
(§2) The parental Ba/F3 cell line is a population of cells that are not introduced with EGFR variants. Specifically, 100 μl of a cell line expressing each variant was plated in a 96-well plate at a density of 100,000 cells/ml. 10-point, 4-fold serial dilutions of each compound were prepared, starting at 2 mM. After 4 h, 0.5 μl of the compound (0.5% DMSO) was added, followed by incubation at 37° C. and 5% CO2 for 72 h. After incubation, the number of viable cells was measured using a Celltiter glo assay kit (Promega) and the GI50 of the compound was determined. The term “GI50” refers to the molar concentration (μM) of the compound required for 50% growth inhibition of cells.

[2] = test system: Ba/F3 cells expressing EGFR-wt; experiment: Growth inhibition (GI50) of Ba/F3 cells expressing EGFR-wt, Celltiter glo; details: Mus musculus, BaF3, 72 h
Method: as §1, §2

parental Ba/F3 cell line = experiment: Growth inhibition (GI50) of the parental Ba/F3 cell line (not introduced with EGFR variants), Celltiter glo; details: Mus musculus, BaF3, 72 h, parental Ba/F3 cells
Method: as §2

GI50 [1] [µM]	GI50 [2] [µM]	Structure (SMILES)	GI50 (parental Ba/F3 cell line) [µM]
0.1 to 0.5	0.5 to 2	CS(=O)(=O)Nc1cc(F)ccc1Nc1nc(Nc2ccc(N3CCOCC3)nc2)ncc1Cl [Example 13]	0.5 to 2
2 to 10	> 10	CN1CCN(C2CCN(c3ccc(Nc4ncc(Cl)c(Nc5ccc(F)cc5NS(C)(=O)=O)n4)cn3)CC2)CC1 [Example 14]	2 to 10
0.5 to 2	2 to 10	CN1CCN(C2CCN(c3ncc(Nc4ncc(Cl)c(Nc5ccc(F)cc5NS(C)(=O)=O)n4)cc3F)CC2)CC1 [Example 16]	0.5 to 2
0.5 to 2	2 to 10	COc1nc(N2CCC(N3CCN(C)CC3)CC2)ccc1Nc1ncc(Cl)c(Nc2ccc(F)cc2NS(C)(=O)=O)n1 [Example 17, N-(2-((5-chloro-2-((2-methoxy-6-(4-(4-methylpiperazin-1-yl)piperidin-1-yl)pyridin-3-yl)amino)pyrimidin-4-yl)amino)-5-fluorophenyl)methanesulfonamide]	2 to 10
2 to 10	2 to 10	COc1cc(N2CCC(N3CCN(C)CC3)CC2)c(C)cc1Nc1ncc(Cl)c(Nc2ccccc2C(F)(F)F)n1 [Example 46]	2 to 10
0.5 to 2	2 to 10	COc1cc(N2CCC(N3CCN(C)CC3)CC2)ccc1Nc1ncc(Cl)c(Nc2ccccc2C(F)(F)F)n1 [Example 47]	2 to 10
0.5 to 2	2 to 10	CCN1CCN(c2ccc(Nc3ncc(Cl)c(Nc4ccccc4C(F)(F)F)n3)cc2)CC1 [Example 48]	2 to 10
0.5 to 2	2 to 10	FC(F)(F)c1ccccc1Nc1nc(Nc2ccc(N3CCOCC3)nc2)ncc1Cl [Example 49]	2 to 10

Second part, the molecule before the results:

Structure (SMILES)	GI50 [1] [µM]	GI50 [2] [µM]	GI50 (parental Ba/F3 cell line) [µM]
CCN1CCN(c2ccc(Nc3ncc(Cl)c(Nc4ccccc4NS(C)(=O)=O)n3)c(OC)n2)CC1 [Example 1]	0.1 to 0.5	0.5 to 2	2 to 10
COc1cc(N2CCC(N3CCN(C)CC3)CC2)c(C)cc1Nc1ncc(Cl)c(Nc2ccccc2NS(C)(=O)=O)n1 [Example 2, N-(2-((5-chloro-2-((2-methoxy-5-methyl-4-(4-(4-methylpiperazin-1-yl)piperidin-1-yl)phenyl)amino)pyrimidin-4-yl)amino)phenyl)methanesulfonamide]	0.001 to 0.025	0.1 to 0.5	0.5 to 2
CN1CCN(C2CCN(c3ccc(Nc4ncc(Cl)c(Nc5ccccc5NS(C)(=O)=O)n4)cn3)CC2)CC1 [Example 3, N-(2-((5-chloro-2-((6-(4-(4-methylpiperazin-1-yl)piperidin-1-yl)pyridin-3-yl)amino)pyrimidin-4-yl)amino)phenyl)methanesulfonamide]	0.1 to 0.5	0.5 to 2	0.5 to 2
CN1CCN(C2CCN(c3ccc(Nc4ncc(Cl)c(Nc5ccccc5NS(C)(=O)=O)n4)c(OCC(F)(F)F)n3)CC2)CC1 [Example 4, N-(2-((5-chloro-2-((6-(4-(4-methylpiperazin-1-yl)piperidin-1-yl)-2-(2,2,2-trifluoroethoxy)pyridin-3-yl)amino)pyrimidin-4-yl)amino)phenyl)methanesulfonamide]	0.5 to 2	2 to 10	2 to 10
CN1CCN(C2CCN(c3ccc(Nc4ncc(Cl)c(Nc5ccccc5NS(C)(=O)=O)n4)cc3F)CC2)CC1 [Example 5, N-(2-((5-chloro-2-((3-fluoro-4-(4-(4-methylpiperazin-1-yl)piperidin-1-yl)phenyl)amino)pyrimidin-4-yl)amino)phenyl)methanesulfonamide]	0.001 to 0.025	0.1 to 0.5	0.025 to 0.1
COc1cc(N2CCC(N3CCN(C)CC3)CC2)c(C)cc1Nc1ncc(Cl)c(Nc2ccc(F)cc2NS(C)(=O)=O)n1 [Example 12]	0.025 to 0.1	0.1 to 0.5	2 to 10
